According to patent publication US20090291950A1, “BICYCLIC HETEROARYL INHIBITORS OF PDE4” (KALYPSYS, INC., priority 2006, published 2009):

The compounds below were run against T1, PDE4B (Homo sapiens, UniProt Q07343) (assay: coupled PDE/AK bioluminescent assay). Conditions: catalytic domain of PDE4B.
T1 construct: hexahistidine (His6) (N); made in house
T1 sequence (Q07343 330-659 limits assumed, species assumed): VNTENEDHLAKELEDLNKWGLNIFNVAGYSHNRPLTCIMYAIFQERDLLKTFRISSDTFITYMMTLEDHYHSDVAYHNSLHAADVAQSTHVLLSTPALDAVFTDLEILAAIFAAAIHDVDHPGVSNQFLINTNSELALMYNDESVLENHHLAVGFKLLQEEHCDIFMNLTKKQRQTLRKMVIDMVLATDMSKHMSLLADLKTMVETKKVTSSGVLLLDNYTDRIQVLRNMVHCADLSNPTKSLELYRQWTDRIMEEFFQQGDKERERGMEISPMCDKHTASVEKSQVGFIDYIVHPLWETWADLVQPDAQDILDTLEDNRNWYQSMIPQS
Format: biochemical
Description: Phosphodiesterases regulate the activity of the second messenger cyclic adenosine monophosphate (cAMP) by hydrolyzing cAMP to adenosine monophosphate (AMP). We developed a novel coupled PDE/AK bioluminescent high-throughput assay to measure the activity of phosphodiesterases. In the PDE/AK assay, the AMP produced from the hydrolysis of cAMP by phosphodiesterase is converted to adenosine diphosphate (ADP) by the phosphotransferase activity of adenylate kinase (also known as ADK or myokinase). Adenylate kinase will catalyze the conversion of 1 mole of AMP and 1 mole of ATP into 2 moles of ADP. Thus the conversion of AMP to ADP will result in the subsequent loss of ATP. The decrease in ATP concentration can be monitored as light output using luciferase in a reaction that requires ATP to produce light. The PDE/AK assay uses luciferase, which catalyzes the production of light from ATP present in the reaction mix. The amount of emitted light is inversely proportional to the level of AMP present in the reaction. Test compounds are incubated with the phosphodiesterases and phosphodiesterase inhibitors will decrease the rate of cAMP hydrolysis and decrease the subsequent production of AMP. Thus phosphodiesterase inhibitors will decrease the conversion of ATP to ADP and result in the greatest emission of light.
Compounds may be screened for functional potency in in vitro biochemical assays for their ability to inhibit the activity of phosphodiesterase (PDE) enzymes. A novel coupled PDE/AK assay was utilized to measure the inhibitory activity of compounds on PDE isoforms. The catalytic domain of PDE4B was fused to an amino-terminus hex-histidine affinity tag and purified. PDE4B enzyme was incubated with compounds for 10 minutes. Cyclic AMP substrate, ATP and adenylate kinase were then added to the PDE enzyme mix and incubated for 45 minutes at room temperature. A commercial ATP detection assay, Perkin Elmer's easyLite ATP detection reagent, was then added to measure the relative amount of ATP present in the reaction. After 10 minute incubation, the luminescent signal was quantitated with either the Perkin Elmer Viewlux or Molecular Devices Acquest or Analyst. Roflumilast and Rolipram are the positive controls used in the assay.
The PDE/AK assay can be performed with any cAMP dependent phosphodiesterase, and can be performed in 96-, 384-, or 1536-well plates. […] Specifically, the use of radioactive substrates in a phosphodiesterase activity assay requires special protocols for handling and waste disposal, and reduced throughput. Modified substrates add the additional complexity of potentially altering the binding to the phosphodiesterase catalytic site. Fluorescently modified substrates may cause fluorescence artifacts that may interfere in the interpretation of assay results. The use of beads that selectively bind to either the cAMP or AMP may cause an additional complexity in reagent handling. The use of antibodies that selectively bind to either cAMP or AMP can be extremely costly with a relatively small signal to noise ratio. Therefore, the novel PDE/AK assay represents a simple, cost-effective alternative to known methods.
`COc1ccc2c(Nc3c(Cl)cccc3Cl)ncnc2c1OC1CCCC1` [Example 1, 8-(Cyclopentyloxy)-N-(2,6-dichlorophenyl)-7-methoxyquinazolin-4-amine] gave an IC50 of over 1000 nM. In the case of `COc1ccc2c(Nc3c(Cl)cncc3Cl)ncnc2c1OC1CCCC1` [Example 2, 8-(Cyclopentyloxy)-N-(3,5-dichloropyridin-4-yl)-7-methoxyquinazolin-4-amine], the IC50 is reported as over 1000 nM. `COc1ccc2c(Cc3c(Cl)cncc3Cl)ncnc2c1OC1CCCC1` [Example 3, 8-(Cyclopentyloxy)-4-[(3,5-dichloropyridin-4-yl)methyl]-7-methoxyquinazoline] gave an IC50 of at most 1000 nM. `COc1ccc2c(Nc3c(Cl)cccc3Cl)ccnc2c1OC1CCCC1` [Example 4, 8-(Cyclopentyloxy)-N-(2,6-dichlorophenyl)-7-methoxyquinolin-4-amine] showed an IC50 of over 1000 nM. In the case of `COc1ccc2c(Nc3c(Cl)cncc3Cl)ccnc2c1OC1CCCC1` [Example 5, 8-(Cyclopentyloxy)-N-(3,5-dichloropyridin-4-yl)-7-methoxyquinolin-4-amine], the IC50 is reported as over 1000 nM. Compound `COc1ccc2c(Cc3c(Cl)cncc3Cl)ccnc2c1OC1CCCC1` [Example 6, 8-(Cyclopentyloxy)-4-[(3,5-dichloropyridin-4-yl)methyl]-7-methoxyquinoline] has an IC50 of over 1000 nM. `COc1ccc2c(Nc3c(Cl)cccc3Cl)nccc2c1OC1CCCC1` [Example 7, 5-(Cyclopentyloxy)-N-(2,6-dichlorophenyl)-6-methoxyisoquinolin-1-amine] gave an IC50 of over 1000 nM. Compound `COc1ccc2c(Nc3c(Cl)cncc3Cl)nccc2c1OC1CCCC1` [Example 8] has an IC50 of at most 1000 nM. `COc1ccc2c(Cc3c(Cl)cncc3Cl)nccc2c1OC1CCCC1` [Example 9, 5-(Cyclopentyloxy)-1-[(3,5-dichloropyridin-4-yl)methyl]-6-methoxyisoquinoline] showed an IC50 of over 1000 nM. Work on `COc1ccc2c(Nc3c(Cl)cncc3Cl)coc2c1OC1CCCC1` [Example 10, 3,5-Dichloro-N-[7-(cyclopentyloxy)-6-methoxybenzofuran-3-yl]pyridine-4-amine] yielded an IC50 of over 1000 nM. `COc1ccc2c(Nc3c(Cl)cccc3Cl)ccnc2c1OC` [Example 11, N-(2,6-Dichlorophenyl)-7,8-dimethoxyquinolin-4-amine] was tested, and the IC50 was over 1000 nM. Work on `COc1ccc2c(NCc3c(Cl)cccc3Cl)coc2c1OC1CCCC1` [Example 12, 7-(Cyclopentyloxy)-N-(2,6-dichlorobenzyl)-6-methoxybenzofuran-3-amine] yielded an IC50 of over 1000 nM. In the case of `COc1ccc2c(Nc3c(Cl)cnc(Cl)c3Cl)ccnc2c1OC1CCCC1` [Example 13, 8-(Cyclopentyloxy)-7-methoxy-N-(2,3,5-trichloropyridin-4-yl)quinolin-4-amine], the IC50 is reported as over 1000 nM. `COc1ccc2c(Nc3c(Cl)c(Cl)nc(Cl)c3Cl)ccnc2c1OC1CCCC1` [Example 14, 8-(Cyclopentyloxy)-7-methoxy-N-(perchloropyridin-4-yl)quinolin-4-amine] was tested, and the IC50 was over 1000 nM. For `COc1ccc2c(Nc3c(C)cncc3C)ccnc2c1OC1CCCC1` [Example 15, 8-(Cyclopentyloxy)-N-(3,5-dimethylpyridin-4-yl)-7-methoxyquinolin-4-amine], the IC50 was over 1000 nM. For `COc1ccc2c(Nc3c(Br)cncc3Br)ccnc2c1OC1CCCC1` [Example 16, 8-(Cyclopentyloxy)-N-(3,5-dibromopyridin-4-yl)-7-methoxyquinolin-4-amine], the IC50 was over 1000 nM. `COc1ccc2c(c1OC1CCCC1)OCCC2Nc1c(Cl)cncc1Cl` (stereo not shown) [Example 17, 3,5-Dichloro-N-(8-(cyclopentyloxy)-7-methoxychroman-4-yl)pyridin-4-amine] was tested, and the IC50 was over 1000 nM. Work on `COc1ccc2c(C(=O)Nc3c(Cl)cncc3Cl)coc2c1OC1CCCC1` [Example 18, 7-(Cyclopentyloxy)-N-(3,5-dichloropyridin-4-yl)-6-methoxybenzofuran-3-carboxamide] yielded an IC50 of over 1000 nM. `COc1cc(Nc2c(Cl)cncc2Cl)c2ccc(OC)c(OC3CCCC3)c2n1` [Example 19, 8-(Cyclopentyloxy)-N-(3,5-dichloropyridin-4-yl)-2,7-dimethoxyquinolin-4-amine] was tested, and the IC50 was at most 1000 nM.
